The values that follow come from US8889704B2 (Array BioPharma Inc., priority 2011, dated 2014).

Common to all, as to format: biochemical
For assay [1], the target named is T1, GST-tagged recombinant full-length human Pim-2 (Homo sapiens, UniProt Q9P1W9).
T1 construct: GST-tagged recombinant full-length human Pim-2; GST
Briefly: PIM-2 Assay (as Example A). As to conditions: averaged IC50; 4 μM ATP, 1.0 μM PIM2tide, 1.5 nM Pim-2. The method in brief: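 Radiometric filter-binding assay: GST-tagged full-length human Pim-2 (1.5 nM) phosphorylates 1.0 μM PIM2tide with 4 μM [γ-33P]ATP for 60 min at 22 °C in pH 7.4 MOPS buffer, 2% DMSO. 10-point 3-fold dilutions from 10 μM top dose; IC50 from 4-parameter fit of percent of control.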

A further assay deals with PIM-1 (Homo sapiens, UniProt P11309). Briefly: Enzyme PIM-1 Assay ([33P]ATP incorporation into PIM2tide, filter plate). As to conditions: averaged IC50; 35 μM ATP, 7.5 μM PIM2tide, 0.25 nM PIM-1, 60 min at 22° C. The method in brief:
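Radiometric assay: 0.25 nM PIM-1 phosphorylates 7.5 μM PIM2tide with 35 μM [γ-33P]ATP in 20 mM MOPS pH 7.4, 10 mM MgCl2, 1 mM DTT, 0.005% Tween-20, 60 min at 22 °C. Product captured on P81 filters, scintillation counted; 10-point 3-fold curve from 10 μM top, 2% DMSO, IC50 by 4-parameter logistic fit of POC.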

The target of a further assay is recombinant rat PIM-3 (Rattus norvegicus, UniProt O70444). Briefly: PIM-3 Assay (as Example A). As to conditions: averaged IC50; 30 μM ATP, 3.75 μM PIM2tide, 0.5 nM PIM-3. The procedure, abridged:
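Recombinant rat PIM-3 (0.5 nM) with 3.75 μM PIM2tide and 30 μM [γ-33P]ATP in MOPS pH 7.4 buffer, 60 min at 22 °C; labelled peptide captured on phosphocellulose filters and counted by scintillation. 10-point curve (top dose 10 μM, 2% DMSO); IC50 from 4-parameter fit of percent of control.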

Structures can show the parent of a compound that is named as a salt. A value given as a limit tells only on which side of the number the result lay.

Chain of PIM-1 (P11309 whole entry, species assumed): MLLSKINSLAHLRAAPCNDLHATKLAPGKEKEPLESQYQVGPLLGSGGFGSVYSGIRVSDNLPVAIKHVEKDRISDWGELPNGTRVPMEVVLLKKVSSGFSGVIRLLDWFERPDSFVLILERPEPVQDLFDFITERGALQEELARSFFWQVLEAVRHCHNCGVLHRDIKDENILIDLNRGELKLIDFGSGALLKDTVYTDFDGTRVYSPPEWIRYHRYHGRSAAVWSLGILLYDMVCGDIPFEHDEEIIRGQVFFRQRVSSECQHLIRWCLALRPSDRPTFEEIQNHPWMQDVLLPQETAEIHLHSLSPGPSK
T1 sequence (Q9P1W9 whole entry): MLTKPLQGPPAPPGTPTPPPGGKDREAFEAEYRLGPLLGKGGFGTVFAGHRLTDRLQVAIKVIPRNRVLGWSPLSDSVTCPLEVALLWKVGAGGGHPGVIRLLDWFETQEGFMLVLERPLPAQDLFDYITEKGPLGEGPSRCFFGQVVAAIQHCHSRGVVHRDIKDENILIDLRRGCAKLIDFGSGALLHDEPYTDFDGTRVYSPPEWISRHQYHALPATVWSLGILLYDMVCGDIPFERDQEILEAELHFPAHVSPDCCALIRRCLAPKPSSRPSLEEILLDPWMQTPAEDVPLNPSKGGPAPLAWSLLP

As a reminder, the IC50 is the concentration that gives 50% inhibition. For `CC(C)Sc1ccc2ccc(-c3nnc4ccc([C@@H](N5CC[C@H](N)C5)C(F)(F)F)cn34)nc2c1` [Example 268, (S)-1-((R)-2,2,2-trifluoro-1-(3-(7-(isopropylthio)quinolin-2-yl)-[1,2,4]triazolo[4,3-a]pyridin-6-yl)ethyl)pyrrolidin-3-amine hydrochloride], the IC50 in assay [1] was more than 1000 nM; against PIM-1, 0.89 nM; at recombinant rat PIM-3, 3.4 nM.

Consider `COCCc1ccc2ccc(-c3nnc4ccc([C@@H](N5CC[C@H](N)C5)C(F)(F)F)cn34)nc2c1` [Example 269, (S)-1-((R)-2,2,2-trifluoro-1-(3-(7-(2-methoxyethyl)quinolin-2-yl)-[1,2,4]triazolo[4,3-a]pyridin-6-yl)ethyl)pyrrolidin-3-amine dihydrochloride], for which the IC50 in assay [1] was 413 nM; at PIM-1, 0.37 nM; at recombinant rat PIM-3 it was 2 nM.

For the molecule `N#CCOc1cccc2ccc(-c3nnc4ccc([C@@H](N5CC[C@H](N)C5)C(F)(F)F)cn34)nc12` [Example 270, 2-(2-(6-((R)-1-((S)-3-aminopyrrolidin-1-yl)-2,2,2-trifluoroethyl)-[1,2,4]triazolo[4,3-a]pyridin-3-yl)quinolin-8-yloxy)acetonitrile formate], the IC50 in assay [1] was 434 nM; against PIM-1, 0.38 nM; on recombinant rat PIM-3, 1.9 nM.

As to `COCC(COC)Oc1cccc2ccc(-c3nnc4ccc([C@@H](N5CC[C@H](N)C5)C(F)(F)F)cn34)nc12` [Example 271, ((S)-1-((R)-1-(3-(8-(1,3-dimethoxypropan-2-yloxy)quinolin-2-yl)-[1,2,4]triazolo[4,3-a]pyridin-6-yl)-2,2,2-trifluoroethyl)pyrrolidin-3-aminedihydrochloride], the IC50 was 647 nM in assay [1], 0.73 nM against PIM-1 and 4.3 nM on recombinant rat PIM-3.

Take `CC(C)(O)COc1cccc2ccc(-c3nnc4ccc([C@@H](N5CC[C@@](C)(N)C5)C(F)(F)F)cn34)nc12` [Example 272, 1-(2-(6-((R)-1-((R)-3-amino-3-methylpyrrolidin-1-yl)-2,2,2-trifluoroethyl)-[1,2,4]triazolo[4,3-a]pyridin-3-yl)quinolin-8-yloxy)-2-methylpropan-2-ol dihydrochloride]: the IC50 in assay [1] is 124 nM; against PIM-1 it was 0.24 nM; at recombinant rat PIM-3, 0.5 nM.

Regarding `CCSc1cccc2ccc(-c3nnc4ccc([C@@H](N5CC[C@H](N)C5)C(F)(F)F)cn34)nc12` [Example 273, (S)-1-((R)-1-(3-(8-(ethylthio)quinolin-2-yl)-[1,2,4]triazolo[4,3-a]pyridin-6-yl)-2,2,2-trifluoroethyl)pyrrolidin-3-amine hydrochloride], the IC50 in assay [1] was more than 1000 nM; on PIM-1 it was 25.9 nM; at recombinant rat PIM-3, 43 nM.

Take `CCOCCOc1ccc2ccc(-c3nnc4ccc([C@@H](N5CC[C@H](N)C5)C(F)(F)F)cn34)nc2c1` [Example 274, (S)-1-((R)-1-(3-(7-(2-ethoxyethoxy)quinolin-2-yl)-[1,2,4]triazolo[4,3-a]pyridin-6-yl)-2,2,2-trifluoroethyl)pyrrolidin-3-amine dihydrochloride]: the IC50 was 961 nM in assay [1], 0.4 nM against PIM-1 and 1.7 nM at recombinant rat PIM-3.

Regarding `COCCCOc1ccc2ccc(-c3nnc4ccc([C@@H](N5CC[C@H](N)C5)C(F)(F)F)cn34)nc2c1` [Example 275, (S)-1-((R)-2,2,2-trifluoro-1-(3-(7-(3-methoxypropoxy)quinolin-2-yl)-[1,2,4]triazolo[4,3-a]pyridin-6-yl)ethyl)pyrrolidin-3-amine dihydrochloride], the 50% inhibitory concentration (IC50) in assay [1] came to 376 nM; at PIM-1, 0.2 nM; at recombinant rat PIM-3 it was 0.7 nM.

For the molecule `COC(C)(C)COc1cccc2ccc(-c3nnc4ccc([C@@H](N5CC[C@H](N)C5)C(F)(F)F)cn34)nc12` [Example 276, (S)-1-((R)-2,2,2-trifluoro-1-(3-(8-(2-methoxy-2-methylpropoxy)quinolin-2-yl)-[1,2,4]triazolo[4,3-a]pyridin-6-yl)ethyl)pyrrolidin-3-amine formate], the IC50 in assay [1] is 44 nM; against PIM-1 it was 0.2 nM; on recombinant rat PIM-3 it was 0.3 nM.

For the molecule `CO[C@H](C)COc1ccc2ccc(-c3nnc4ccc([C@@H](N5CC[C@H](N)C5)C(F)(F)F)cn34)nc2c1` [Example 277, (S)-1-((R)-2,2,2-trifluoro-1-(3-(7-((R)-2-methoxypropoxy)quinolin-2-yl)-[1,2,4]triazolo[4,3-a]pyridin-6-yl)ethyl)pyrrolidin-3-amine dihydrochloride], the IC50 in assay [1] worked out at 231 nM; at PIM-1, 0.28 nM; at recombinant rat PIM-3, 0.7 nM.

As to `CC(C)(O)COc1ccc2ccc(-c3nnc4ccc([C@@H](N5CC[C@H](N)C5)C(F)(F)F)cn34)nc2c1` [Example 278, 1-(2-(6-((R)-1-((S)-3-aminopyrrolidin-1-yl)-2,2,2-trifluoroethyl)-[1,2,4]triazolo[4,3-a]pyridin-3-yl)quinolin-7-yloxy)-2-methylpropan-2-ol dihydrochloride], the IC50 in assay [1] came to 180 nM; against PIM-1 it was 0.23 nM; at recombinant rat PIM-3, 0.4 nM.

As for `CCOc1cc2nc(-c3nnc4ccc([C@@H](N5CC[C@@H](CN)C5)C(F)(F)F)cn34)ccc2cc1F` [Example 279, ((S)-1-((R)-1-(3-(7-ethoxy-6-fluoroquinolin-2-yl)-[1,2,4]triazolo[4,3-a]pyridin-6-yl)-2,2,2-trifluoroethyl)pyrrolidin-3-yl)methanamine hydrochloride], the IC50 in assay [1] came to 431 nM; against PIM-1, 0.96 nM; at recombinant rat PIM-3, 3.1 nM.

For `CCOc1cc2nc(-c3nnc4ccc([C@@H](N5CC[C@H](CN)C5)C(F)(F)F)cn34)ccc2cc1F` [Example 280, ((R)-1-((R)-1-(3-(7-ethoxy-6-fluoroquinolin-2-yl)-[1,2,4]triazolo[4,3-a]pyridin-6-yl)-2,2,2-trifluoroethyl)pyrrolidin-3-yl)methanamine hydrochloride], the IC50 in assay [1] was 418 nM; on PIM-1 it was 0.62 nM; on recombinant rat PIM-3 it was 2.5 nM.

As to `CSCCOc1ccc2ccc(-c3nnc4ccc([C@@H](N5CC[C@H](N)C5)C(F)(F)F)cn34)nc2c1` [Example 281, (S)-1-((R)-2,2,2-trifluoro-1-(3-(7-(2-(methylthio)ethoxy)quinolin-2-yl)-[1,2,4]triazolo[4,3-a]pyridin-6-yl)ethyl)pyrrolidin-3-amine hydrochloride], the figures for the IC50 (in assay [1]; at PIM-1; at recombinant rat PIM-3) were 242 nM, 0.26 nM and 0.7 nM, respectively.

As to `CCOc1cc2nc(-c3nnc4ccc([C@@H](N5CC[C@@H](N)C5)C(F)(F)F)cn34)ccc2cc1F` [Example 282, (R)-1-((R)-1-(3-(7-ethoxy-6-fluoroquinolin-2-yl)-[1,2,4]triazolo[4,3-a]pyridin-6-yl)-2,2,2-trifluoroethyl)pyrrolidin-3-amine hydrochloride], the IC50 stood at 166 nM in assay [1], 0.28 nM on PIM-1 and 0.8 nM on recombinant rat PIM-3.

As to `C[C@@H](O)COc1cccc2ccc(-c3nnc4ccc([C@@H](N5CC[C@H](N)C5)C(F)(F)F)cn34)nc12` [Example 283, (R)-1-(2-(6-((R)-1-((S)-3-aminopyrrolidin-1-yl)-2,2,2-trifluoroethyl)-[1,2,4]triazolo[4,3-a]pyridin-3-yl)quinolin-8-yloxy)propan-2-ol formate], the IC50 in assay [1] turned out to be 194 nM; at PIM-1, 0.18 nM; on recombinant rat PIM-3, 0.7 nM.

For `COCCc1cc2nc(-c3nnc4ccc([C@H](N5CC[C@](C)(N)C5)C(F)(F)F)cn34)ccc2cc1F` [Example 284, (S)-3-methyl-1-((S)-2,2,2-trifluoro-1-(3-(6-fluoro-7-(2-methoxyethyl)quinolin-2-yl)-[1,2,4]triazolo[4,3-a]pyridin-6-yl)ethyl)pyrrolidin-3-amine dihydrochloride], the half-inhibitory concentration (IC50) in assay [1] came to 50 nM; against PIM-1 it was 0.28 nM; on recombinant rat PIM-3 it was 0.4 nM.

Regarding `CC(C)C(=O)OCCOc1cc2nc(-c3nnc4ccc([C@@H](N5CC[C@H](N)C5)C(F)(F)F)cn34)ccc2cc1F` [Example 285, 2-(2-(6-((R)-1-((S)-3-aminopyrrolidin-1-yl)-2,2,2-trifluoroethyl)-[1,2,4]triazolo[4,3-a]pyridin-3-yl)-6-fluoroquinolin-7-yloxy)ethyl isobutyrate], the IC50 in assay [1] was more than 1000 nM; on PIM-1, 0.57 nM; on recombinant rat PIM-3, 8.6 nM.

Turning to `CC(C)(C)C(=O)OCCOc1cc2nc(-c3nnc4ccc([C@@H](N5CC[C@H](N)C5)C(F)(F)F)cn34)ccc2cc1F` [Example 286, 2-(2-(6-((R)-1-((S)-3-aminopyrrolidin-1-yl)-2,2,2-trifluoroethyl)-[1,2,4]triazolo[4,3-a]pyridin-3-yl)-6-fluoroquinolin-7-yloxy)ethyl pivalate], the IC50 is more than 1000 nM in assay [1], 1.38 nM against PIM-1 and 33 nM on recombinant rat PIM-3.
